Experimental data published in ChEMBL document CHEMBL4138175, “Newly designed organotin(IV) carboxylates with peptide linkage: Synthesis, structural elucidation, physicochemical characterizations and pharmacological investigations” (Eur J Med Chem, 2018).
Active and inactive are the calls of the source. The calls are words filed in the database; no cut-off is given here.

Experiments:
Serratia marcescens [1] = assay: Antibacterial activity against Serratia marcescens assessed as zone of inhibition by measuring activity index after 24 to 48 hrs by well diffusion method relative to ampicillin; type: functional
Streptococcus pyogenes [2] = assay: Antibacterial activity against Streptococcus pyogenes assessed as zone of inhibition by measuring activity index after 24 to 48 hrs by well diffusion method relative to ampicillin; type: functional, organism-based
Serratia marcescens [3] = assay: Antibacterial activity against Serratia marcescens assessed as zone of inhibition by measuring activity index after 24 to 48 hrs by well diffusion method relative to amoxicillin; type: functional
[4] = tested on: Staphylococcus epidermidis; assay: Antibacterial activity against Staphylococcus epidermidis assessed as zone of inhibition after 24 to 48 hrs by well diffusion method; type: functional
Staphylococcus aureus [5] = assay: Antibacterial activity against Staphylococcus aureus assessed as zone of inhibition by measuring activity index after 24 to 48 hrs by well diffusion method relative to ampicillin; type: functional, organism-based
NCI-H157 [6] = assay: Cytotoxicity against human NCI-H157 cells at 0.1 uM after 48 hrs by sulforhodamine B assay; type: functional
Streptococcus pyogenes [7] = assay: Antibacterial activity against Streptococcus pyogenes assessed as zone of inhibition after 24 to 48 hrs by well diffusion method; type: functional
Staphylococcus aureus [8] = assay: Antibacterial activity against Staphylococcus aureus assessed as zone of inhibition by measuring activity index after 24 to 48 hrs by well diffusion method relative to tetracycline; type: functional, organism-based
Klebsiella pneumoniae [9] = assay: Antibacterial activity against Klebsiella pneumoniae assessed as zone of inhibition by measuring activity index after 24 to 48 hrs by well diffusion method relative to penicillin G; type: functional, organism-based
Pseudomonas aeruginosa [10] = assay: Antibacterial activity against Pseudomonas aeruginosa assessed as zone of inhibition after 24 to 48 hrs by well diffusion method; type: functional
NCI-H157 [11] = assay: Cytotoxicity against human NCI-H157 cells at 10 uM after 48 hrs by sulforhodamine B assay; type: functional
NCI-H157 [12] = assay: Cytotoxicity against human NCI-H157 cells after 48 hrs by sulforhodamine B assay; type: functional, cell-based
NCI-H157 [13] = assay: Cytotoxicity against human NCI-H157 cells at 100 uM after 48 hrs by sulforhodamine B assay; type: functional
NCI-H157 [14] = assay: Cytotoxicity against human NCI-H157 cells at 1 uM after 48 hrs by sulforhodamine B assay; type: functional
BHK-21 [15] = assay: Cytotoxicity against golden hamster BHK21 cells at 100 uM after 48 hrs by sulforhodamine B assay; type: cell-based, Mesocricetus auratus; conditions: bhk-21, 48 h
Staphylococcus aureus [16] = assay: Antibacterial activity against Staphylococcus aureus assessed as zone of inhibition by measuring activity index after 24 to 48 hrs by well diffusion method relative to amoxicillin; type: functional, organism-based
Escherichia coli [17] = assay: Antibacterial activity against Escherichia coli assessed as zone of inhibition after 24 to 48 hrs by well diffusion method; type: functional
BHK-21 [18] = assay: Cytotoxicity against golden hamster BHK21 cells at 1 uM after 48 hrs by sulforhodamine B assay; type: cell-based, Mesocricetus auratus; conditions: bhk-21, 48 h
Staphylococcus aureus [19] = assay: Antibacterial activity against Staphylococcus aureus assessed as zone of inhibition after 24 to 48 hrs by well diffusion method; type: functional
Klebsiella pneumoniae [20] = assay: Antibacterial activity against Klebsiella pneumoniae assessed as zone of inhibition after 24 to 48 hrs by well diffusion method; type: functional
Escherichia coli [21] = assay: Antibacterial activity against Escherichia coli assessed as zone of inhibition by measuring activity index after 24 to 48 hrs by well diffusion method relative to tetracycline; type: functional
Serratia marcescens [22] = assay: Antibacterial activity against Serratia marcescens assessed as zone of inhibition by measuring activity index after 24 to 48 hrs by well diffusion method relative to penicillin G; type: functional
Streptococcus pyogenes [23] = assay: Antibacterial activity against Streptococcus pyogenes assessed as zone of inhibition by measuring activity index after 24 to 48 hrs by well diffusion method relative to amoxicillin; type: functional, organism-based
Streptococcus pyogenes [24] = assay: Antibacterial activity against Streptococcus pyogenes assessed as zone of inhibition by measuring activity index after 24 to 48 hrs by well diffusion method relative to tetracycline; type: functional, organism-based
BHK-21 [25] = assay: Cytotoxicity against golden hamster BHK21 cells at 0.1 uM after 48 hrs by sulforhodamine B assay; type: cell-based, Mesocricetus auratus; conditions: bhk-21, 48 h
Streptococcus pyogenes [26] = assay: Antibacterial activity against Streptococcus pyogenes assessed as zone of inhibition by measuring activity index after 24 to 48 hrs by well diffusion method relative to penicillin G; type: functional, organism-based
Leishmania major [27] = assay: Antileishmanial activity against Leishmania major promastigotes at 1 uM after 72 hrs by MTT assay relative to control; type: functional
BHK-21 [28] = assay: Cytotoxicity against golden hamsterBHK21 cells at 10 uM after 48 hrs by sulforhodamine B assay; type: cell-based, Mesocricetus auratus; conditions: hamster, bhk-21, 48 h
Leishmania major [29] = assay: Antileishmanial activity against Leishmania major promastigotes at 100 uM after 72 hrs by MTT assay relative to control; type: functional
Leishmania major [30] = assay: Antileishmanial activity against Leishmania major promastigotes at 0.1 uM after 72 hrs by MTT assay relative to control; type: functional
BHK-21 [31] = assay: Cytotoxicity against golden hamster BHK21 cells after 48 hrs by sulforhodamine B assay; type: cell-based, Mesocricetus auratus; conditions: bhk-21, 48 h
Serratia marcescens [32] = assay: Antibacterial activity against Serratia marcescens assessed as zone of inhibition after 24 to 48 hrs by well diffusion method; type: functional
[33] = tested on: Staphylococcus epidermidis; assay: Antibacterial activity against Staphylococcus epidermidis assessed as zone of inhibition by measuring activity index after 24 to 48 hrs by well diffusion method relative to ampicillin; type: functional, organism-based
[34] = tested on: Staphylococcus epidermidis; assay: Antibacterial activity against Staphylococcus epidermidis assessed as zone of inhibition by measuring activity index after 24 to 48 hrs by well diffusion method relative to penicillin G; type: functional, organism-based
Pseudomonas aeruginosa [35] = assay: Antibacterial activity against Pseudomonas aeruginosa assessed as zone of inhibition by measuring activity index after 24 to 48 hrs by well diffusion method relative to ampicillin; type: functional, organism-based
Staphylococcus aureus [36] = assay: Antibacterial activity against Staphylococcus aureus assessed as zone of inhibition by measuring activity index after 24 to 48 hrs by well diffusion method relative to penicillin G; type: functional, organism-based
Leishmania major [37] = assay: Antileishmanial activity against Leishmania major promastigotes at 10 uM after 72 hrs by MTT assay relative to control; type: functional
Klebsiella pneumoniae [38] = assay: Antibacterial activity against Klebsiella pneumoniae assessed as zone of inhibition by measuring activity index after 24 to 48 hrs by well diffusion method relative to ampicillin; type: functional, organism-based
Klebsiella pneumoniae [39] = assay: Antibacterial activity against Klebsiella pneumoniae assessed as zone of inhibition by measuring activity index after 24 to 48 hrs by well diffusion method relative to amoxicillin; type: functional, organism-based
DNA [40] = assay: Binding affinity to single-stranded DNA (unknown origin) after 10 mins by UV-visible spectrometric method; type: nucleic-acid assay
[41] = tested on: Staphylococcus epidermidis; assay: Antibacterial activity against Staphylococcus epidermidis assessed as zone of inhibition by measuring activity index after 24 to 48 hrs by well diffusion method relative to tetracycline; type: functional, organism-based
[42] = tested on: Staphylococcus epidermidis; assay: Antibacterial activity against Staphylococcus epidermidis assessed as zone of inhibition by measuring activity index after 24 to 48 hrs by well diffusion method relative to amoxicillin; type: functional, organism-based
DNA [43] = assay: Binding affinity to single-stranded DNA (unknown origin) assessed as DNA intercalation by measuring increase in relative viscosity of DNA-compound complex by viscometry; type: nucleic-acid assay
Escherichia coli [44] = assay: Antibacterial activity against Escherichia coli assessed as zone of inhibition by measuring activity index after 24 to 48 hrs by well diffusion method relative to ampicillin; type: functional, organism-based
Klebsiella pneumoniae [45] = assay: Antibacterial activity against Klebsiella pneumoniae assessed as zone of inhibition by measuring activity index after 24 to 48 hrs by well diffusion method relative to tetracycline; type: functional, organism-based
Escherichia coli [46] = assay: Antibacterial activity against Escherichia coli assessed as zone of inhibition by measuring activity index after 24 to 48 hrs by well diffusion method relative to amoxicillin; type: functional, organism-based
Escherichia coli [47] = assay: Antibacterial activity against Escherichia coli assessed as zone of inhibition by measuring activity index after 24 to 48 hrs by well diffusion method relative to penicillin G; type: functional, organism-based
DNA [48] = assay: Binding affinity to single-stranded DNA (unknown origin) assessed as red shift up to 72 uM after 10 mins by UV-visible spectrometric method; type: nucleic-acid assay
Pseudomonas aeruginosa [49] = assay: Antibacterial activity against Pseudomonas aeruginosa assessed as zone of inhibition by measuring activity index after 24 to 48 hrs by well diffusion method relative to penicillin G; type: functional, organism-based
Pseudomonas aeruginosa [50] = assay: Antibacterial activity against Pseudomonas aeruginosa assessed as zone of inhibition by measuring activity index after 24 to 48 hrs by well diffusion method relative to tetracycline; type: functional, organism-based
Pseudomonas aeruginosa [51] = assay: Antibacterial activity against Pseudomonas aeruginosa assessed as zone of inhibition by measuring activity index after 24 to 48 hrs by well diffusion method relative to amoxicillin; type: functional, organism-based

Molecule	inhibition zone (IZ) [4]	Activity (NCI-H157 [6])	inhibition zone (IZ) (Streptococcus pyogenes [7])	inhibition zone (IZ) (Pseudomonas aeruginosa [10])	Activity (NCI-H157 [11])	Activity (NCI-H157 [12])	Activity (NCI-H157 [13])	Activity (NCI-H157 [14])	inhibition zone (IZ) (Escherichia coli [17])	inhibition zone (IZ) (Staphylococcus aureus [19])	inhibition zone (IZ) (Klebsiella pneumoniae [20])	Activity (Leishmania major [27])	Activity (Leishmania major [29])	Activity (Leishmania major [30])	inhibition zone (IZ) (Serratia marcescens [32])	Activity_index (Pseudomonas aeruginosa [35])	Activity (Leishmania major [37])	Activity index (Serratia marcescens [1])	Activity index (Klebsiella pneumoniae [38])	Activity index (Klebsiella pneumoniae [39])	also measured
COc1ccc(NC(=O)c2ccccc2C(=O)[O-])c([N+](=O)[O-])c1.[Na+]	inactive	25.1%	inactive	inactive	50.3%	Dose-dependent effect	52.2%	35.2%	5 mm	inactive	inactive	40.2%	49.5%	38.4%	7.33 mm	inactive	46.3%	–	–	–	Activity_index (Serratia marcescens [1]): 0.92; Activity_index (Streptococcus pyogenes [2]): inactive; Activity_index (Serratia marcescens [3]): 1.22; Activity_index (Staphylococcus aureus [5]): inactive; Activity_index (Staphylococcus aureus [8]): inactive; Activity_index (Klebsiella pneumoniae [9]): inactive; Activity (BHK-21 [15]): 53.5%; Activity_index (Staphylococcus aureus [16]): inactive; Activity (BHK-21 [18]): 44.2%; Activity_index (Escherichia coli [21]): 2.5; Activity_index (Serratia marcescens [22]): 0.92; Activity_index (Streptococcus pyogenes [23]): inactive; Activity_index (Streptococcus pyogenes [24]): inactive; Activity (BHK-21 [25]): 40.5%; Activity_index (Streptococcus pyogenes [26]): inactive; Activity (BHK-21 [28]): 48.9%; Activity (BHK-21 [31]): Dose-dependent effect; Activity_index [33]: inactive; Activity_index [34]: inactive; Activity_index (Staphylococcus aureus [36]): inactive
Triethylstannyl 2-(4-methoxy-2-nitrophenylcarbamoyl)benzoate	11 mm	39.8%	15.7 mm	inactive	57.4%	Dose-dependent effect	62.4%	43.7%	inactive	19.3 mm	27.7 mm	49.4%	56.4%	45.3%	15.3 mm	inactive	53.2%	1.92	4.61	4.61	Activity index (Serratia marcescens [3]): 2.55; K (DNA [40]): 9.3 ×10³ /M; Activity index [41]: 1.1; Activity index [42]: 5.5; Activity (DNA [43]): Active; Activity index (Serratia marcescens [22]): 1.92; Activity_index (Escherichia coli [44]): inactive; Activity index (Klebsiella pneumoniae [45]): 1.98; Activity_index (Escherichia coli [46]): inactive; Activity_index (Escherichia coli [47]): inactive; Activity (DNA [48]): < 3 nm
Trimethylstannyl 2-(4-methoxy-2-nitrophenylcarbamoyl)benzoate	10.3 mm	54.4%	7.33 mm	15.7 mm	62.3%	Dose-dependent effect	66.4%	58.2%	16.7 mm	4.66 mm	20.2 mm	62.9%	67.8%	58.8%	13.3 mm	–	66.5%	1.67	3.44	3.44	Activity index (Serratia marcescens [3]): 2.22; K (DNA [40]): 4.2 ×10³ /M; Activity index [41]: 1.03; Activity index [42]: 5.17; Activity index (Escherichia coli [21]): 8.33; Activity (DNA [43]): Active; Activity index (Serratia marcescens [22]): 1.67; Activity index (Pseudomonas aeruginosa [49]): 2.61; Activity index (Klebsiella pneumoniae [45]): 1.44; Activity index (Pseudomonas aeruginosa [50]): 2.61; Activity index (Pseudomonas aeruginosa [51]): 2.61; Activity (DNA [48]): < 3 nm
